This note sets out measurements from patent US10100056B2, “SHIP1 modulators and methods related thereto” (Aquinox Pharmaceuticals (Canada) Inc., priority 2013, dated 2018).

The subject of assay [1] is Akt phosphorylation in Molt-4 (PTEN-/SHIP1+) cells. Nature of the assay: Akt phosphorylation in lymphocytes (Western blot, IGF-1 stimulated). Also on record: key: +: inhibits Akt phosphorylation at 30 μM; −: no effect on Akt phosphorylation at 30 μM. In kind it is cell-based. The following applies: 30 μM; Molt-4 (SHIP1+) cells, IGF-1 100 ng/mL. The procedure:
Molt-4 (PTEN-/SHIP1+) cells are starved in serum free RPMI for overnight. In a 15 mL conical tube, 2-3 million serum starved cells (1 million cells per mL) are treated with various concentrations of test compound ([…]) for 30 min at 37° C. followed by stimulation with 100 ng/mL of IGF-1 for 1 hour at 37° C. After stimulation, cells are washed once with ice-cold DPBS and lysed with Lysis Buffer (20 mM Tris-HCl, pH 7.5, 140 mM NaCl, 1% NP-40, Complete Mini Protease Inhibitor Cocktail, 10 mM NaF, 1 mM Na3VO4, 1 mM β-glycerolphosphate) on ice for 30 min with vortexing every 10 min. Samples are then centrifuged at 13,000 rpm for 20 min, and supernatants are collected as total cell lysate samples. Protein concentration is determined using bicinchonic acid assay, and about 15 μg of total protein from each sample is loaded and separated on a 4-12% Tris-Glycine gel. After SDS-PAGE, proteins are transferred from the gel to a nitrocellulose membrane. The membrane is blocked in 5% BSA in PBS containing 0.1% Tween-20 (PBS-T) for 1 hour at room temperature before probing with primary antibodies for overnight at 4° C. The following antibodies are used: mouse anti-SHIP1 (1:500 dilution; Santa Cruz, Calif., USA), rabbit anti-phospho-Akt (Ser473) (1:1000 dilution; Cell Signaling Technologies, MA, USA), rabbit anti-Akt (1:1000; Cell Signaling Technologies, MA, USA), and rabbit anti-actin (1:2000; Cell Signaling Technologies, MA, USA). The membrane is then incubated with goat anti-rabbit or anti-mouse secondary antibodies (1:3000) for 1 hour at room temperature. Target proteins on the membrane are detected with ECL solution and exposed on a film.
In general terms: In western blotting, separated proteins are transferred to a membrane and probed.

Another assay concerns the target T1, His-hSHIP1 enzyme (Homo sapiens, UniProt Q92835).
T1 construct: His
T1 sequence (Q92835 1-1189): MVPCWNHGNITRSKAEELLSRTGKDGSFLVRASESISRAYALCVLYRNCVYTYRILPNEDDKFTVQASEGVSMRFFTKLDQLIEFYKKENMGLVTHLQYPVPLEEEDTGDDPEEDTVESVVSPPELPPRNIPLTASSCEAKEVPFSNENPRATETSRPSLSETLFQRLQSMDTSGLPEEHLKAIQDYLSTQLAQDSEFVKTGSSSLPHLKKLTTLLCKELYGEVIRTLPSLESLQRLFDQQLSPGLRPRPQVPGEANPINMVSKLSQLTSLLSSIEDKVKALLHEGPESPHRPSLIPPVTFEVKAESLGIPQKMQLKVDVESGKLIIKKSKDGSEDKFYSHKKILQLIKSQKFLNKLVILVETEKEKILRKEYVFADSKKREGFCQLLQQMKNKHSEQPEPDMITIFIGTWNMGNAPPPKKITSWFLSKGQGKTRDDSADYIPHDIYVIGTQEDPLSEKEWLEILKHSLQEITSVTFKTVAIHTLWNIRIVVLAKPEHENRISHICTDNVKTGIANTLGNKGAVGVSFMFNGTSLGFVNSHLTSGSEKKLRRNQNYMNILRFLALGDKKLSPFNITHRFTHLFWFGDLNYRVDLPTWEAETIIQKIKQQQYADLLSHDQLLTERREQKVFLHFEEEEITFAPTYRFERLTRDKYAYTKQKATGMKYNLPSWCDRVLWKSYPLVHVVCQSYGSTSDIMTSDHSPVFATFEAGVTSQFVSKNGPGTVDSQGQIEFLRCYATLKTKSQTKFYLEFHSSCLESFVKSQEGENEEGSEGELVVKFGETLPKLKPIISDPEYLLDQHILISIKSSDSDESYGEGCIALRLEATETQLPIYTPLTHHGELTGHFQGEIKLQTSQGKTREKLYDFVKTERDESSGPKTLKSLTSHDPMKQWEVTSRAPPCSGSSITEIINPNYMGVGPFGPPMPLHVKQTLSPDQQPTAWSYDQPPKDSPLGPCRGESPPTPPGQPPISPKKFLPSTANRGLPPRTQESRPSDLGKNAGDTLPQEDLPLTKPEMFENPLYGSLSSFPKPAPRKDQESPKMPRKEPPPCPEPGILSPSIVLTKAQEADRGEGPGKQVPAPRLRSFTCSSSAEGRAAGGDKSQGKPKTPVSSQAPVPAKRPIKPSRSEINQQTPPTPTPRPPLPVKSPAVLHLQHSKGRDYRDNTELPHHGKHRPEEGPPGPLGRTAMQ
Nature of the assay: His-hSHIP1 activity (phosphatase assay, IP4 substrate, Biomol Green). In kind it is biochemical. Also on record: key to Scoring, Approach 2 (Initial velocity Ratio): +++: higher than reference or reference - 15%; ++: reference - 16% to reference - 30%; +: reference - 31% or lower; −: inhibitor. The following applies: second approach: ratio of initial velocities IP4 25/250 μM compared with reference compound; values without asterisk. The procedure:
Test compounds are dissolved in 95% ethanol to form stock solutions. Before screening, the stock solutions are diluted with Phosphatase Assay Buffer (20 mM Tris-HCL, 10 mM MgCl2 pH 7.5, 0.02% Tween 20) to form working assay solutions that contain 10% ethanol. The assay is carried out on 96-well microtiter plates using a modified procedure of that reported by Ong et al., Blood 110, 1942-1949, 2007 and Yang et al., Org Lett 7, 1073-1076, 2005, both of which references are incorporated herein by reference in their entirety.
Data were generated by one of two variant methods. Test compounds are screened by one of two approaches described as follows. In the first approach, each reaction contains 5 μL of His-hSHIP1 enzyme (5-20 ng), 10 μL of the substrate, 1,3,4,5-inositol tetrakisphosphate (IP4; 50 μM final), 5 μL of Phosphatase Assay Buffer, and 5 µL of test compound at various concentrations in 10% ethanol (0-300 μM final). Control blanks are also prepared by replacing His-hSHIP1 enzyme, IP4, or test compounds with Phosphatase Assay Buffer. After adding the reaction components in a 96-well microtiter plate on ice, the reaction is mixed by briefly shaking the plate vigorously. The reaction is then incubated at 37° C. for 15 min with gentle shaking followed by addition of 100 μL of Biomol Green Reagent (BIOMOL, PA, USA) to terminate the reaction. The free phosphate released from IP4 by His-hSHIP1 binds to the Biomol Green Reagent, which turns the dye to green color. After incubating the mixture for 20 min at room temperature for color development, the absorbance is read with SpectraMax Plus 96-well plate reader (Molecular Devices, Sunnyvale, Calif., USA) at a wavelength of 650 nm.
In the second approach, a master mix is prepared that contains 50 μL of His-hSHIP1 enzyme (0.4-1.6 ng/μL final), 25 μL of the substrate, IP4 (25 or 250 μM final), and 50 μL of test compound in 3.3% ethanol (100 μL final). Control blanks are also prepared by replacing His-hSHIP1 enzyme, IP4, or test compounds with Phosphate Assay Buffer. […] Each reaction component is preincubated at 37° C. for 30 min before adding to a 96-well microtiter plate. The master mix is then incubated at 37° C. At time 0, 20, and 30 min, 25 μL of the master mix is removed and transferred to a new 96-well microtiter plate, to which 100 μL of Biomol Green Reagent is added to stop the reaction. After incubating the mixture for 20 min at room temperature for color development, the absorbance is read with SpectraMax Plus 96-well plate reader at a wavelength of 650 nm. Phosphate released is plotted against time to calculate the initial velocities (i.e., slope of the graph) at each IP4 concentration. The initial velocities are baseline corrected and the ratio of initial velocities (IP425/IP4250) is calculated and used to rate the test compounds.

For `CC1(C)CCC2=C1CC[C@H]([C@@]1(C)CC[C@H](O)C[C@@H]1CO)[C@H]2CNC(=N)N.Cl` [Cpd. No. 1, 1-(((4R,5S)-5-((1R,2S,4S)-4-hydroxy-2-(hydroxymethyl)-1-methylcyclohexyl)-1,1-dimethyl-2,3,4,5,6,7-hexahydro-1H-inden-4-yl)methyl)guanidine hydrochloride], the “Molt-4 (SHIP+): inhibition of Akt phosphorylation” value (shortened to “Molt-4 (SHIP+): inhibition”) in assay [1] is recorded as “+”. Also, the “Scoring, Approach 2 (Initial velocity Ratio)” value at His-hSHIP1 enzyme is listed as “++”.

`C=C1CC[C@H]2[C@H](CNCc3ccc(OC)cc3)[C@@H]([C@@]3(C)CC[C@H](O)C[C@@H]3CO)CC[C@]12C` [Cpd. No. 18, (1S,3S,4R)-3-(hydroxymethyl)-4-((3aS,4R,5S,7aS)-4-((4-methoxybenzylamino)methyl)-7a-methyl-1-methyleneoctahydro-1H-inden-5-yl)-4-methylcyclohexanol]: the “Molt-4 (SHIP+): inhibition” value in assay [1] is given as “+”. On His-hSHIP1 enzyme, the “Scoring, Approach 2 (Initial velocity Ratio)” value was “+”.

Consider `C=C1CC[C@H]2[C@H](Cn3cncn3)[C@@H]([C@@]3(C)CC[C@H](O)C[C@@H]3CO)CC[C@]12C` [Cpd. No. 27, (1S,3S,4R)-4-((3aS,4R,5S,7aS)-4-((1H-1,2,4-triazol-1-yl)methyl)-7a-methyl-1-methyleneoctahydro-1H-inden-5-yl)-3-(hydroxymethyl)-4-methylcyclohexanol], for which, in assay [1], the “Molt-4 (SHIP+): inhibition” value is given as “−”. Besides, at His-hSHIP1 enzyme, the “Scoring, Approach 2 (Initial velocity Ratio)” value is “+”.

Turning to `C=C1CC[C@H]2[C@H](O)[C@@H]([C@@]3(C)CC[C@H](O)C[C@@H]3CCN3CCOCC3)CC[C@]12C` [Cpd. No. 46, (3aR,4R,5R,7aS)-5-((1S,2S,4S)-4-hydroxy-1-methyl-2-(2-morpholinoethyl)cyclohexyl)-7a-methyl-1-methyleneoctahydro-1H-inden-4-ol], the “Molt-4 (SHIP+): inhibition” value in assay [1] was “+”. Besides, at His-hSHIP1 enzyme, the “Scoring, Approach 2 (Initial velocity Ratio)” value is given as “++”.

Consider `C=C1CC[C@H]2[C@H](CNC(=O)NCc3ccccc3)[C@@H]([C@@]3(C)CC[C@H](O)C[C@@H]3CO)CC[C@]12C` [Cpd. No. 91, 1-benzyl-3-(((3aS,4R,5S,7aS)-5-((1R,2S,4S)-4-hydroxy-2-(hydroxymethyl)-1-methylcyclohexyl)-7a-methyl-1-methyleneoctahydro-1H-inden-4-yl)methyl)urea], for which the “Scoring, Approach 2 (Initial velocity Ratio)” value at His-hSHIP1 enzyme is listed as “+”.

Regarding `C=C1CC[C@H]2[C@H](CCNC(=O)c3ccc4c(c3)OCO4)[C@@H]([C@@]3(C)CC[C@H](O)C[C@@H]3O)CC[C@]12C` [Cpd. No. 93, N-(2-((3aS,4S,5S,7aS)-5-((1R,2S,4S)-2,4-dihydroxy-1-methylcyclohexyl)-7a-methyl-1-methyleneoctahydro-1H-inden-4-yl)ethyl)benzo[d][1,3]dioxole-5-carboxamide], the “Scoring, Approach 2 (Initial velocity Ratio)” value at His-hSHIP1 enzyme is reported as “++”.
